# Reference: patent US10709704B2, “Treating neural disease with tyrosine kinase inhibitors” (GEORGETOWN UNIVERSITY, priority 2012, dated 2020)
# Test system: GFP-tagged TDP-43
# Assay: Distribution of GFP-tagged TDP-43 in M17 cells
# Format: cell-based, human
# Parameters: distribution of GFP-tagged TDP-43 / translocation of GFP-tagged TDP-43 with Nilotinib or Bosutinib: unit of the concentration uncertain
# Description: Human neuroblastoma M17 cells (seeding density 2×10^5 cells) were grown in 24 well dishes (Falcon) to 70% confluence in Dulbecco's Modified Eagle Medium (DMEM; Invitrogen) plus 10% (v/v) heat-inactivated fetal bovine serum (Invitrogen), penicillin/streptomycin, and 2 mM L-glutamine at 37° C. and 5% CO2, washed twice in phosphate-buffered saline (PBS). Transient transfection was performed with 3 μg parkin cDNA or 3 μg TDP-43 cDNA, or 3 μg LacZ cDNA. Cells were treated with 5 μM tubacin for 24 hours and DAPI stained in 12 well dishes. Cells were harvested 24 hours after transfection. Transfection was performed in DMEM without serum using Lipofectamine 2000 (Invitrogen) according to the manufacturer's protocol. […] Western blot was performed on NuPAGE 4-12% Bis-Tris gel (Invitrogen). Protein estimation was performed using the microscale BioRad protein assay (BioRad Laboratories Inc, Hercules, Calif., USA).
# To ascertain that both parkin and HDAC6 are required for TDP-43 translocation, GFP-tagged TDP-43 was expressed in M17 neuroblastoma cells in the presence of wild type or loss-of-function mutant (T240R) parkin, and treated with 5 μM selective HDAC6 inhibitor for 24 hours.
# The following data support these conclusions.
compound,measurement,setting,value
O=C(CCCCCCC(=O)Nc1ccc([C@H]2O[C@@H](CSc3nc(-c4ccccc4)c(-c4ccccc4)o3)C[C@@H](c3ccc(CO)cc3)O2)cc1)NO [Tubacin],GFP fluorescence (GFP-TDP-43) in the cytosol,"5 μM for 24 hours, presence or absence of parkin",did not lead to GFP fluorescence in the cytosol
same,translocation of GFP-tagged TDP-43 with Nilotinib or Bosutinib,Tubacin (5 µM) for additional 24 hrs,impairs translocation
